Test results: patent US10023565B2, “N,N′ substituted piperidinamine compounds, and preparation method and usage thereof” (Institute of Pharmacology and Toxicology Academy of …, priority 2013, dated 2018)
Where “and” joins values, the source holds several entries; their conditions need not be identical. Equal values may be shown once. Read-outs that look alike come from different tables or passages of the source.

Test: Mice pharmacokinetic evaluation (LC-MS/MS of plasma)
Assay type: in vivo, ICR mice
Settings: for Cmax: read-out: Cmax; for Plasma concentration of active compound: listed as Mol
Method: Mice pharmacokinetic evaluation of the compound of Example 36 according to the method described below
ICR mice, SPS grade, male, weighed […], license number SCXK (Beijing) 2012-0001, purchased from Beijing Vital River Laboratory Animal Technology Co. Ltd.
Chromatographic conditions: Analytical column: Capcell Pak MG, 5 μm particle size, 50×2.0 mm I.D. (Shiseido Co.), connected with C18 guard column, 4×3.0 mm I.D. (PhenomenexCo., USA), column temperature 25° C., mobile phase: acetonitrile −2 mM ammonium acetate (65:35, v/v), flow rate 0.3 ml/min, internal standard: loratadine.
MS conditions: Electrospray ionization source (Turbo Ionspray source), positive ion mode detection; spray voltage 4500 V; source temperature 400° C.; nebulizer gas (NEB) 8; curtain gas (CUR) 10; collision gas (CAD) 4; scanning mode: multiple reaction monitoring (MRM), ion reactions for quantitative analysis: m/z 354.4→m/z 154.1 (Mol, CE 43 V) and m/z 383→m/z 337 (internal standard loratadine, CE 32 V), scanning time 150 msec.
To 50 μl of plasma, were added 10 μl of internal standard solution (125 ng/ml aqueous solution of loratadine), and 500 μl of n-hexane-dichloromethane-isopropanol (100:50:5, v/v/v); they were uniformly mixed, followed by vortexing for 3 min, and centrifuging for 10 min (3000 rpm); the supernatant was taken and blow dried with air streamat 40° C.; the residue was dissolved with 150 μl […], and subjected to LC-MS/MS analysis.
30 ICR male mice were randomly divided into […], five mices each group, including Mol 10 mg/kg oral group and 1.0 mg/kg tail intravenous injection group. For oral group, before administration, the animals were fasted for 12 h, with free access to water; 0.08, 0.25, 0.5, 1, 2, 4, 6, 8, 12 and 24 h after intragastrical administration, 0.1 ml of orbital venous sinus blood was taken, placed in anticoagulation tube containing heparin sodium, and subjected to 3000 g centrifugation for 15 min; and then, the plasma was taken and stored in a −20° C. refrigerator. […]
Pharmacokinetic parameters were calculated using non-compartment model of Winnonlin® software (Version 5.2.1, USA). Cmax is the measured maximum plasma concentration, Tmax is time to peak plasma concentration after oral administration, t1/2 is drug terminal elimination halflife, MRT is average residence time of drug in vivo, the area AUC0-t under plasma concentration—time curve is calculated by trapezoidal method.
Bioavailability is calculated as follows: […]
AUC: Area (h*ng/ml) under the curve; D: dose (mg/kg)

[1] = male, ICR, mouse, plasma, po, 10 mg/kg, Po 10 mg/kg, Mean ± SD, n = 3
[2] = male, ICR, mouse, plasma, po, 10 mg/kg, Po 10 mg/kg, individual mice 1-3
[3] = male, ICR, mouse, plasma, po, 10 mg/kg, oral 10 mg/kg, Mean, read-out: Plasma concentration of active compound
[4] = male, ICR, mouse, plasma, po, 10 mg/kg, oral 10 mg/kg, individual mice 1-3, read-out: Plasma concentration of active compound

CSc1nccc(N2CCC(N(C)Cc3ccc(C#N)cc3)CC2)n1 [Example 36, N-methyl-N-(4-cyanobenzyl)-N-[1-(2-methylthiopyrimidin-4-yl)piperidin-4-yl]amine]
concentration at 0.17 h (male, ICR, mouse, plasma, iv, 1 mg/kg, intravenous 1.0 mg/kg, Mean, read-out: Plasma concentration of active compound): 62.8 ng/mL
concentration at 0.17 h (male, ICR, mouse, plasma, iv, 1 mg/kg, intravenous 1.0 mg/kg, individual mice 4-6, read-out: Plasma concentration of active compound): 79.6 ng/mL
concentration at 0.5 h (male, ICR, mouse, plasma, iv, 1 mg/kg, intravenous 1.0 mg/kg, 0.5 h, Mean, read-out: Plasma concentration of active compound): 31.5 ng/mL
concentration at 1 h (male, ICR, mouse, plasma, iv, 1 mg/kg, intravenous 1.0 mg/kg, 1.0 h, Mean, read-out: Plasma concentration of active compound): 7.02 ng/mL
concentration at 2 h (male, ICR, mouse, plasma, iv, 1 mg/kg, intravenous 1.0 mg/kg, 2.0 h, Mean, read-out: Plasma concentration of active compound): 1.77 ng/mL
concentration at 4 h (male, ICR, mouse, plasma, iv, 1 mg/kg, intravenous 1.0 mg/kg, 4.0 h, Mean, read-out: Plasma concentration of active compound): 2.26 ng/mL
concentration at 4 h (male, ICR, mouse, plasma, iv, 1 mg/kg, intravenous 1.0 mg/kg, 4.0 h, individual mice 4-6, read-out: Plasma concentration of active compound): 2.3 ng/mL
concentration at 6 h (male, ICR, mouse, plasma, iv, 1 mg/kg, intravenous 1.0 mg/kg, 6.0 h, Mean, read-out: Plasma concentration of active compound): 7.53 ng/mL
concentration at 6 h (male, ICR, mouse, plasma, iv, 1 mg/kg, intravenous 1.0 mg/kg, 6.0 h, individual mice 4-6, read-out: Plasma concentration of active compound): 7.53 ng/mL
concentration at 8 h (male, ICR, mouse, plasma, iv, 1 mg/kg, intravenous 1.0 mg/kg, 8.0 h, Mean, read-out: Plasma concentration of active compound): 0.84 ng/mL
concentration at 8 h (male, ICR, mouse, plasma, iv, 1 mg/kg, intravenous 1.0 mg/kg, 8.0 h, individual mice 4-6, read-out: Plasma concentration of active compound): 0.7 ng/mL
bioavailability (male, ICR, mouse, plasma, oral, 10 mg/kg, Po 10 mg/kg vs IV 1.0 mg/kg, Mean ± SD, n = 3, read-out: F (absolute bioavailability)): 55.5 ± 10.9%
AUC(0-inf) [1]: 280 ± 55.8 ng·h/mL
AUC(0-t) [1]: 275 ± 54.1 ng·h/mL
half-life [1]: 2.72 ± 2.47 h
Cmax [1]: 260 ± 63.2 ng/mL
MRT last (male, ICR, mouse, plasma, po, 10 mg/kg, Po 10 mg/kg, Mean ± SD, n = 3, read-out: MRT0-t): 1.58 ± 0.86 h
MRT inf (male, ICR, mouse, plasma, po, 10 mg/kg, Po 10 mg/kg, Mean ± SD, n = 3, read-out: MRT0-∞): 1.95 ± 1.42 h
Tmax (male, ICR, mouse, plasma, po, 10 mg/kg, Po 10 mg/kg, Mean ± SD, n = 3, read-out: Tmax): 0.44 ± 0.49 h
AUC(0-inf) [2]: 216 ng·h/mL
AUC(0-t) [2]: 214 ng·h/mL
Cmax [2]: 197 ng/mL
concentration at 0.08 h (male, ICR, mouse, plasma, po, 10 mg/kg, oral 10 mg/kg, 0.08 h, Mean, read-out: Plasma concentration of active compound): 141 ng/mL
concentration at 0.25 h (male, ICR, mouse, plasma, po, 10 mg/kg, oral 10 mg/kg, 0.25 h, Mean, read-out: Plasma concentration of active compound): 203 ng/mL
concentration at 0.5 h (male, ICR, mouse, plasma, po, 10 mg/kg, oral 10 mg/kg, 0.50 h, Mean, read-out: Plasma concentration of active compound): 97.5 ng/mL
concentration at 1 h (male, ICR, mouse, plasma, po, 10 mg/kg, oral 10 mg/kg, 1.0 h, Mean, read-out: Plasma concentration of active compound): 147 ng/mL
concentration at 2 h (male, ICR, mouse, plasma, po, 10 mg/kg, oral 10 mg/kg, 2.0 h, Mean, read-out: Plasma concentration of active compound): 23.5 ng/mL
concentration at 4 h (male, ICR, mouse, plasma, po, 10 mg/kg, oral 10 mg/kg, 4.0 h, Mean, read-out: Plasma concentration of active compound): 7.75 ng/mL
concentration at 6 h (male, ICR, mouse, plasma, po, 10 mg/kg, oral 10 mg/kg, 6.0 h, Mean, read-out: Plasma concentration of active compound): 7.36 ng/mL
concentration at 8 h (male, ICR, mouse, plasma, po, 10 mg/kg, oral 10 mg/kg, 8.0 h, Mean, read-out: Plasma concentration of active compound): 2.71 ng/mL
concentration at 12 h [3]: 0.5 ng/mL
concentration at 12 h [4]: 0.5 ng/mL
concentration at 24 h [3]: 1.32 ng/mL
concentration at 24 h [4]: 1.32 ng/mL
Plasma concentration of active compound (oral 10 mg/kg, 0.08 h, individual mice 1-3, 10 mg/kg): 196.99 ng/mL and 152.22 ng/mL and 72.70 ng/mL
Plasma concentration of active compound (oral 10 mg/kg, 0.25 h, individual mice 1-3, 10 mg/kg): 126.87 ng/mL and 158.18 ng/mL and 323.37 ng/mL
Plasma concentration of active compound (oral 10 mg/kg, 0.50 h, individual mice 1-3, 10 mg/kg): 41.24 ng/mL and 119.50 ng/mL and 131.86 ng/mL
Plasma concentration of active compound (oral 10 mg/kg, 1.0 h, individual mice 1-3, 10 mg/kg): 107.54 ng/mL and 260.48 ng/mL and 71.98 ng/mL
Plasma concentration of active compound (oral 10 mg/kg, 2.0 h, individual mice 1-3, 10 mg/kg): 33.99 ng/mL and 12.86 ng/mL and 23.69 ng/mL
Plasma concentration of active compound (oral 10 mg/kg, 4.0 h, individual mice 1-3, 10 mg/kg): 7.47 ng/mL and 1.17 ng/mL and 14.60 ng/mL
Plasma concentration of active compound (oral 10 mg/kg, 6.0 h, individual mice 1-3, 10 mg/kg): 1.28 ng/mL and 13.43 ng/mL
Plasma concentration of active compound (oral 10 mg/kg, 8.0 h, individual mice 1-3, 10 mg/kg): 0.54 ng/mL and 4.88 ng/mL
